Assay results reported in patent US20080274892A1, “Novel Haloalkylsulfonanilide Derivative, Herbicide, and Method of Use Thereof” (priority 2005, published 2008).

Columns and labels:
bulrush [1] = test: Test Example 4: low dosage test for rice paddy weeds; format: in vivo, Scirpus juncoides; settings: 300 g/ha as an active ingredient; plants treated at the one leaf stage; 21 days after treatment; vs untreated control
Method in brief: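 Compound applied as a formulation at 300 g/ha to one-leaf bulrush grown in flooded clay loam (5 cm water) in a hot house. After 21 days, growth inhibition versus untreated plants rated on a 0–4 scale, with 4 meaning 90–100%.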

[2] = test system: paddy rice plant (cultivar: Nihonbare); test: Test Example 3: phytotoxicity test for transplanted paddy rice plant; format: in vivo; settings: dosage 1000 g/ha; transplanted rice, treated 5 days after transplantation; 21 days after treatment
Method in brief: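 Clay loam soil was placed in a 75 cm^2 plastic pot and flooded to a water depth of 5 cm. Two Nihonbare paddy rice plants at the two-leaf stage were transplanted 1 cm deep and grown in a hot house. After treatment, pots stayed in the hot house for 21 days, and phytotoxicity was then graded against an untreated control.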

[3] = test system: transplanted paddy rice plant and Bulrush; test: Test Example 5: selectivity between transplanted paddy rice plant and weeds; format: in vivo; settings: (highest dosage with no phytotoxicity to paddy rice)/(lowest dosage with effective level 4 on Bulrush); rice 3000-100 g/ha, Bulrush 300-10 g/ha; 21 days
Method in brief: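 Scoring ran 21 days after treatment in a hothouse on a 0–4 scale (4 = 90–100%, 3 = 70–89%, 2 = 40–69%, 1 = 1–39%, 0 = none) relative to untreated plants. Post-emergence bulrush received 10, 30, 100 and 300 g/ha active ingredient. Transplanted rice received 100, 300, 1000 and 3000 g/ha to assess crop injury.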

bulrush [4] = test: Test Example 1: herbicidal efficacy on rice paddy weeds pre-emergence; format: in vivo, Scirpus juncoides; settings: dosage 1000 g/ha, 21 days
false pimpernel [5] = test: as above; format: in vivo, Lindernia pyxidaria; settings: dosage 1000 g/ha, 21 days
barnyard glass = test: Test Example 2: herbicidal efficacy on rice paddy weeds post-emergence; format: in vivo, Echinochloa crus-galli; settings: dosage 1000 g/ha; post-emergence, one leaf stage; 21 days after treatment
Method in brief: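 Efficacy on paddy weeds was scored on a 0 to 4 growth-inhibition scale: 4 for 90%-100%, 3 for 70%-89%, 2 for 40%-69%, 1 for 1%-39% and 0 for 0%. Barnyard glass was grown in clay loam in 75 cm^2 pots under 5 cm of water in a hot house. It was compared with untreated pots 21 days after treatment.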

bulrush [6] = test: as above; format: in vivo, Scirpus juncoides; settings: dosage 1000 g/ha; post-emergence, one leaf stage; 21 days after treatment
false pimpernel [7] = test: as above; format: in vivo, Lindernia pyxidaria; settings: dosage 1000 g/ha; post-emergence, one leaf stage; 21 days after treatment

| Structure (SMILES) | Herbicide effect to Bulrush (bulrush [1]) | Phytotoxicity to paddy rice [2] | Selective Index [3] | Bulrush pre (herbicidal efficacy grade) (bulrush [4]) | False pimpernel pre (herbicidal efficacy grade) (false pimpernel [5]) | Burnyard grass post (herbicidal efficacy grade) (barnyard glass) | Bulrush post (herbicidal efficacy grade) (bulrush [6]) | False pimpernel post (herbicidal efficacy grade) (false pimpernel [7]) |
| --- | --- | --- | --- | --- | --- | --- | --- | --- |
| CCCOC(=O)N(c1ccccc1CN1CC(C)(C(C)C)OC1=O)S(=O)(=O)C(F)(F)F (racemic) [1-116] | 4 (90%-100% of herbicidal efficacy or phytotoxicity) | 1 (1%-39% of herbicidal efficacy or phytotoxicity) | 10 | 4 (90%-100% of herbicidal efficacy or phytotoxicity) | 4 (90%-100% of herbicidal efficacy or phytotoxicity) | 4 (90%-100% of herbicidal efficacy or phytotoxicity) | 4 (90%-100% of herbicidal efficacy or phytotoxicity) | 4 (90%-100% of herbicidal efficacy or phytotoxicity) |
| CCC1(CC)CN(Cc2ccccc2N(C(=O)OCC(C)(C)C)S(=O)(=O)C(F)(F)F)C(=O)O1 [1-100] | 4 (90%-100% of herbicidal efficacy or phytotoxicity) | 1 (1%-39% of herbicidal efficacy or phytotoxicity) | 10 | 4 (90%-100% of herbicidal efficacy or phytotoxicity) | 4 (90%-100% of herbicidal efficacy or phytotoxicity) | 4 (90%-100% of herbicidal efficacy or phytotoxicity) | 4 (90%-100% of herbicidal efficacy or phytotoxicity) | 4 (90%-100% of herbicidal efficacy or phytotoxicity) |
| COC(=O)N(c1ccccc1CN1CC(C)(C2CC2)OC1=O)S(=O)(=O)C(F)(F)F (racemic) [1-110] | 4 (90%-100% of herbicidal efficacy or phytotoxicity) | 2 (40%-69% of herbicidal efficacy or phytotoxicity) | ≧30 | 4 (90%-100% of herbicidal efficacy or phytotoxicity) | 4 (90%-100% of herbicidal efficacy or phytotoxicity) | 4 (90%-100% of herbicidal efficacy or phytotoxicity) | 4 (90%-100% of herbicidal efficacy or phytotoxicity) | 4 (90%-100% of herbicidal efficacy or phytotoxicity) |
| CCCCCOC(=O)N(c1ccccc1CN1CC(C)(C)OC1=O)S(=O)(=O)C(F)(F)F [1-92] | 4 (90%-100% of herbicidal efficacy or phytotoxicity) | 3 (70%-89% of herbicidal efficacy or phytotoxicity) | 30 | 4 (90%-100% of herbicidal efficacy or phytotoxicity) | 4 (90%-100% of herbicidal efficacy or phytotoxicity) | 4 (90%-100% of herbicidal efficacy or phytotoxicity) | 4 (90%-100% of herbicidal efficacy or phytotoxicity) | 4 (90%-100% of herbicidal efficacy or phytotoxicity) |
| CC(C)COC(=O)N(c1ccccc1CN1C(=O)OC(C)(C)C1C)S(=O)(=O)C(F)(F)F (centres unmarked) [1-95] | 4 (90%-100% of herbicidal efficacy or phytotoxicity) | 3 (70%-89% of herbicidal efficacy or phytotoxicity) | 30 | 4 (90%-100% of herbicidal efficacy or phytotoxicity) | 4 (90%-100% of herbicidal efficacy or phytotoxicity) | 4 (90%-100% of herbicidal efficacy or phytotoxicity) | 4 (90%-100% of herbicidal efficacy or phytotoxicity) | 4 (90%-100% of herbicidal efficacy or phytotoxicity) |
| COC(=O)N(c1ccccc1CN1C(=O)OC(C)(C)C1=O)S(=O)(=O)C(F)(F)F [1-188] | 4 (90%-100% of herbicidal efficacy or phytotoxicity) | 1 (1%-39% of herbicidal efficacy or phytotoxicity) | ≧10 | 4 (90%-100% of herbicidal efficacy or phytotoxicity) | 4 (90%-100% of herbicidal efficacy or phytotoxicity) | 4 (90%-100% of herbicidal efficacy or phytotoxicity) | 4 (90%-100% of herbicidal efficacy or phytotoxicity) | 4 (90%-100% of herbicidal efficacy or phytotoxicity) |
| CC(C)(C)COC(=O)N(c1ccccc1CN1CC(C)(C)OC1=O)S(=O)(=O)C(F)(F)F [1-66] | 4 (90%-100% of herbicidal efficacy or phytotoxicity) | 1 (1%-39% of herbicidal efficacy or phytotoxicity) | ≧30 | 4 (90%-100% of herbicidal efficacy or phytotoxicity) | 4 (90%-100% of herbicidal efficacy or phytotoxicity) | 4 (90%-100% of herbicidal efficacy or phytotoxicity) | 4 (90%-100% of herbicidal efficacy or phytotoxicity) | 4 (90%-100% of herbicidal efficacy or phytotoxicity) |
| COC(=O)N(c1ccccc1CN1CC(C)(C2(C)CC2)OC1=O)S(=O)(=O)C(F)(F)F (centres unmarked) [1-169] | 4 (90%-100% of herbicidal efficacy or phytotoxicity) | 1 (1%-39% of herbicidal efficacy or phytotoxicity) | 10 | 4 (90%-100% of herbicidal efficacy or phytotoxicity) | 4 (90%-100% of herbicidal efficacy or phytotoxicity) | 4 (90%-100% of herbicidal efficacy or phytotoxicity) | 4 (90%-100% of herbicidal efficacy or phytotoxicity) | 4 (90%-100% of herbicidal efficacy or phytotoxicity) |
| CC(C)COC(=O)N(c1ccccc1CN1CC(C)(C2(C)CC2)OC1=O)S(=O)(=O)C(F)(F)F (centres unmarked) [1-168] | 4 (90%-100% of herbicidal efficacy or phytotoxicity) | 1 (1%-39% of herbicidal efficacy or phytotoxicity) | 10 | 4 (90%-100% of herbicidal efficacy or phytotoxicity) | 4 (90%-100% of herbicidal efficacy or phytotoxicity) | 4 (90%-100% of herbicidal efficacy or phytotoxicity) | 4 (90%-100% of herbicidal efficacy or phytotoxicity) | 4 (90%-100% of herbicidal efficacy or phytotoxicity) |
| CCC1(C)CN(Cc2ccccc2N(C(=O)OCC(C)(C)C)S(=O)(=O)C(F)(F)F)C(=O)O1 (racemic) [1-105] | 4 (90%-100% of herbicidal efficacy or phytotoxicity) | 1 (1%-39% of herbicidal efficacy or phytotoxicity) | 10 | 4 (90%-100% of herbicidal efficacy or phytotoxicity) | 4 (90%-100% of herbicidal efficacy or phytotoxicity) | 4 (90%-100% of herbicidal efficacy or phytotoxicity) | 4 (90%-100% of herbicidal efficacy or phytotoxicity) | 4 (90%-100% of herbicidal efficacy or phytotoxicity) |
